ChEMBL document CHEMBL3046338, “Solid-Supported Parallel Synthesis of Hydroxybenzylamine Libraries Possessing Antileishmial Activity” (Med Chem Res, 2005)
pEC50: −log10 of the molar value.

Assays:
Type in all cases: functional, organism-based
[1] = system: Leishmania donovani; assay: Antileishmanial activity against Leishmania donovani promastigotes after 72 hr by alamar blue assay
[2] = system: Plasmodium falciparum; assay: Antimalarial activity against chloroquine-resistant Plasmodium falciparum W2 IndoChina after 48 hr by parasite LDH assay
[3] = system: Plasmodium falciparum; assay: Antimalarial activity against chloroquine-sensitive Plasmodium falciparum D6 SierraLeone after 48 hr by parasite LDH assay

| Structure (SMILES) | pEC50 [1] | pEC50 [2] | pEC50 [3] |
| --- | --- | --- | --- |
| COc1ccc(CN(Cc2ccc(Br)cc2)c2cccnc2)cc1O | 4.49 |  |  |
| COc1ccc(CN(CCc2ccccc2)c2cccnc2)cc1O | 4.73 |  |  |
| COc1ccc(CN(CCCc2ccccc2)c2cccnc2)cc1O | 4.80 |  |  |
| COc1ccc(CN(CCc2c[nH]c3ccccc23)Cc2ccccc2)cc1O | 5.03 |  |  |
| COc1ccc(CN(CCc2c[nH]c3ccccc23)Cc2ccc(Br)cc2)cc1O | 5.01 |  |  |
| COc1ccc(CN(CCc2ccccc2)CCc2c[nH]c3ccccc23)cc1O | 4.79 |  |  |
| COc1ccc(CN(CCCc2ccccc2)CCc2c[nH]c3ccccc23)cc1O | 5.00 |  |  |
| COc1ccc(N(Cc2ccc(C)cc2)Cc2ccc(OC)c(O)c2)cc1 | 4.19 |  |  |
| COc1ccc(N(Cc2ccc(C(C)(C)C)cc2)Cc2ccc(OC)c(O)c2)cc1 | 4.21 |  |  |
| COc1ccc(CN(Cc2ccc(OC)c(O)c2)c2ccc(OC)cc2)cc1 | 4.15 |  |  |
| COc1ccc(CN(CCCN2CCOCC2)Cc2ccccc2)cc1O |  | 4.89 | 4.89 |
| COc1ccc(CN(CCCN2CCOCC2)Cc2ccc(Br)cc2)cc1O | 4.29 | 4.98 | 4.98 |
| COc1ccc(CN(CCc2ccccc2)CCc2ccc(Br)cc2)cc1O | 4.23 |  |  |
| COc1ccc(CN(CCCc2ccccc2)CCc2ccc(Br)cc2)cc1O | 4.54 |  |  |
| CCOC(=O)CCN(CCc1ccc(Br)cc1)Cc1ccc(OC)c(O)c1 | 4.60 |  |  |
| CCOC(=O)CN(CCc1ccc(Br)cc1)Cc1ccc(OC)c(O)c1 | 4.58 |  |  |
| COc1ccc(CN(CCc2ccc(Br)cc2)CC(=O)OC(C)(C)C)cc1O | 4.95 |  |  |
| CCOC(=O)CCCN(CCc1ccc(Br)cc1)Cc1ccc(OC)c(O)c1 | 4.42 |  |  |
| CCCCN(CCc1ccc(Br)cc1)Cc1ccc(OC)c(O)c1 | 3.90 | 5.15 |  |
| COc1ccc(CN(CCc2ccccc2)CCc2ccccc2)cc1O | 4.68 |  |  |
| COc1ccc(CN(CCCc2ccccc2)CCc2ccccc2)cc1O | 4.85 |  |  |
| COc1ccc(CN(CCc2ccccc2)CC(=O)OC(C)(C)C)cc1O | 4.47 |  |  |

| Structure (SMILES) | pEC50 [1] | pEC50 [2] | pEC50 [3] |
| --- | --- | --- | --- |
| CCOC(=O)CCCN(CCc1ccccc1)Cc1ccc(OC)c(O)c1 | 4.59 |  |  |
| COc1ccc(CN(Cc2ccccc2)c2cccnc2)cc1O | 4.28 |  |  |
| COc1ccc(CN(CCc2ccc(Br)cc2)Cc2ccc([N+](=O)[O-])cc2)cc1O | 4.33 |  | 5.02 |
| COc1ccc(CN(CCc2ccccc2)Cc2ccc(F)cc2)cc1O | 4.20 |  |  |
| COc1ccc(CN(CCc2ccccc2)Cc2cccc(Cl)c2)cc1O | 4.15 |  |  |
| COc1ccc(CN(CCc2ccccc2)Cc2ccc(Cl)cc2)cc1O | 4.17 |  |  |
| COc1ccc(CN(CCc2ccccc2)Cc2ccc(Cl)c(Cl)c2)cc1O | 4.30 |  |  |
| COc1ccc(CN(CCc2ccccc2)Cc2ccc(Cl)cc2Cl)cc1O | 4.22 |  |  |
| COc1ccc(CN(CCc2ccccc2)Cc2c(F)c(F)c(F)c(F)c2F)cc1O | 4.32 |  |  |
| COc1ccc(CN(CCc2ccc(Br)cc2)Cc2ccc(OC)c(O)c2)cc1 | 4.48 |  |  |
| COc1ccc(CN(CCc2ccccc2)Cc2ccc(C)cc2)cc1O | 4.70 |  |  |
| COc1ccc(CN(CCc2ccccc2)Cc2ccc(C(C)(C)C)cc2)cc1O | 4.73 |  |  |
| COc1ccc(CN(CCc2ccccc2)Cc2ccc(OC)c(O)c2)cc1 | 4.73 |  |  |
| COc1ccc(CN(Cc2ccccc2)c2cc(OC)c(OC)c(OC)c2)cc1O | 4.53 |  |  |
| COc1ccc(CN(Cc2ccc(Br)cc2)c2cc(OC)c(OC)c(OC)c2)cc1O | 4.35 |  |  |
| COc1ccc(N(Cc2ccccc2)Cc2ccc(OC)c(O)c2)cc1 | 3.96 |  |  |
| COc1ccc(N(Cc2ccc(Br)cc2)Cc2ccc(OC)c(O)c2)cc1 | 4.59 | 4.95 | 4.95 |
| COc1ccc(N(Cc2ccc(F)cc2)Cc2ccc(OC)c(O)c2)cc1 | 4.07 |  |  |
| COc1ccc(N(Cc2ccc(Cl)cc2)Cc2ccc(OC)c(O)c2)cc1 | 4.22 |  |  |
| COc1ccc(CN(CCc2ccc(Br)cc2)Cc2ccc(Cl)cc2Cl)cc1O | 4.31 |  |  |
| COc1ccc(CN(Cc2ccccc2)Cc2ccc(Br)cc2)cc1O | 4.50 |  |  |
| COc1ccc(CN(CCc2ccccc2)Cc2ccccc2)cc1O | 4.43 |  |  |

| Structure (SMILES) | pEC50 [1] | pEC50 [2] | pEC50 [3] |
| --- | --- | --- | --- |
| COc1ccc(CCN(Cc2ccccc2)Cc2ccc(OC)c(O)c2)cc1 | 4.30 | 4.90 | 4.90 |
| COc1ccc(CN(Cc2ccccc2)c2ccc(Br)cc2)cc1O | 4.15 |  |  |
| COc1ccc(CN(Cc2ccccc2)c2cccc(Cl)c2)cc1O | 4.40 | 4.87 | 4.87 |
| COc1ccc(CN(CCc2ccc(Br)cc2)Cc2ccccc2)cc1O | 4.93 | 4.95 | 5.18 |
| COc1ccc(CN(CCc2ccc(OC)c(OC)c2)Cc2ccccc2)cc1O | 4.27 | 4.93 |  |
| COc1ccc(CCN(Cc2ccc(Br)cc2)Cc2ccc(OC)c(O)c2)cc1 | 4.66 | 4.98 |  |
| COc1ccc(CN(Cc2ccc(Br)cc2)c2ccc(Br)cc2)cc1O | 4.47 |  |  |
| COc1ccc(CN(Cc2ccc(Br)cc2)c2cccc(Cl)c2)cc1O | 4.19 |  |  |
| COc1ccc(CN(CCc2ccc(OC)c(OC)c2)Cc2ccc(Br)cc2)cc1O | 4.41 | 5.01 |  |
| COc1ccc(CN(CCc2ccc(Br)cc2)Cc2ccc(F)cc2)cc1O | 4.25 |  |  |
| COc1ccc(CN(CCc2ccc(Br)cc2)Cc2cccc(Cl)c2)cc1O | 4.34 |  |  |
| COc1ccc(CN(CCc2ccc(Br)cc2)Cc2ccc(Cl)cc2)cc1O | 4.27 |  |  |
| COc1ccc(CN(CCc2ccc(Br)cc2)Cc2ccc(Br)cc2)cc1O | 4.93 | 5.03 | 5.16 |
| COc1ccc(CN(CCc2ccc(Br)cc2)Cc2ccc(C)cc2)cc1O | 4.53 |  |  |
| COc1ccc(CN(CCc2ccc(Br)cc2)Cc2c(F)c(F)c(F)c(F)c2F)cc1O | 4.30 |  |  |
| COc1ccc(CN(CCc2ccc(Br)cc2)Cc2ccc(Cl)c(Cl)c2)cc1O | 4.31 |  |  |
| COc1ccc(CN(CCc2ccc(Br)cc2)Cc2ccc(C(C)(C)C)cc2)cc1O | 4.32 |  |  |
| C[C@@H]1[C@H](O)[C@@H](C)/C=C/C=C/C=C/C=C/C=C/C=C/C=C/[C@H](O[C@@H]2O[C@H](C)[C@@H](O)[C@H](N)[C@@H]2O)C[C@@H]2O[C@](O)(C[C@@H](O)C[C@@H](O)[C@H](O)CC[C@@H](O)C[C@@H](O)CC(=O)O[C@H]1C)C[C@H](O)[C@H]2C(=O)O [AMPHOTERICIN B] | 8.00 |  |  |
| C[C@@H]1CC[C@H]2[C@@H](C)C(=O)O[C@@H]3O[C@@]4(C)CC[C@@H]1[C@]32OO4 [ARTEMISININ] |  | 7.70 | 7.70 |
| CCN(CC)CCCC(C)Nc1ccnc2cc(Cl)ccc12 (centres undefined) [CHLOROQUINE] |  | 6.51 |  |
| N=C(N)c1ccc(OCCCCCOc2ccc(C(=N)N)cc2)cc1 [PENTAMIDINE] | 5.87 |  |  |
